Experimental data reported in ChEMBL document CHEMBL4507305, “Data for DCP probe TP-024” (2021).

How the values were obtained:
[1] = target: Fibroblast growth factor receptor 2 (Homo sapiens) (UniProt P21802); settings: Compound concentration 1000.0 nM
[2] = target: Mitogen-activated protein kinase kinase kinase 3 (Homo sapiens) (UniProt Q99759); settings: Compound concentration 1000.0 nM
[3] = target: Serine/threonine-protein kinase Nek9 (Homo sapiens) (UniProt Q8TD19); settings: Compound concentration 1000.0 nM
[4] = target: Mitotic checkpoint serine/threonine-protein kinase BUB1 (Homo sapiens) (UniProt O43683); settings: Compound concentration 1000.0 nM
[5] = target: Calcium/calmodulin-dependent protein kinase type IV (Homo sapiens) (UniProt Q16566); settings: Compound concentration 1000.0 nM
[6] = system: Proto-oncogene tyrosine-protein kinase receptor Ret (Homo sapiens), P07949 [V804L]; settings: Compound concentration 1000.0 nM
[7] = target: Cyclin-dependent kinase 15 (Homo sapiens) (UniProt Q96Q40); settings: Compound concentration 1000.0 nM
[8] = target: Cyclin-dependent kinase 4 (Homo sapiens) (UniProt P11802); settings: Compound concentration 1000.0 nM
[9] = target: Ephrin type-A receptor 8 (Homo sapiens) (UniProt P29322); settings: Compound concentration 1000.0 nM
[10] = target: Cyclin-dependent kinase 2 homolog (Plasmodium falciparum (isolate 3D7)) (UniProt P61075); settings: Compound concentration 1000.0 nM
[11] = target: Receptor-interacting serine/threonine-protein kinase 4 (Homo sapiens) (UniProt P57078); settings: Compound concentration 1000.0 nM
[12] = target: Muscarinic acetylcholine receptor M1 (Homo sapiens) (UniProt P11229); settings: Compound concentration 10.0 uM
[13] = target: NUAK family SNF1-like kinase 1 (Homo sapiens) (UniProt O60285); settings: Compound concentration 1000.0 nM
[14] = target: Serine/threonine-protein kinase PLK4 (Homo sapiens) (UniProt O00444); settings: Compound concentration 1000.0 nM
[15] = target: Alpha-2B adrenergic receptor (Homo sapiens) (UniProt P18089); settings: Compound concentration 10.0 uM
[16] = target: D(1B) dopamine receptor (Homo sapiens) (UniProt P21918); settings: Compound concentration 10.0 uM
[17] = target: Serine/threonine-protein kinase PAK 4 (Homo sapiens) (UniProt O96013); settings: Compound concentration 1000.0 nM
[18] = target: Serine/threonine-protein kinase RIO3 (Homo sapiens) (UniProt O14730); settings: Compound concentration 1000.0 nM
[19] = target: BDNF/NT-3 growth factors receptor (Homo sapiens) (UniProt Q16620); settings: Compound concentration 1000.0 nM
[20] = target: Serine/threonine-protein kinase 17B (Homo sapiens) (UniProt O94768); settings: Compound concentration 1000.0 nM
[21] = target: MAP kinase-activated protein kinase 2 (Homo sapiens) (UniProt P49137); settings: Compound concentration 1000.0 nM
[22] = system: Phosphatidylinositol 4,5-bisphosphate 3-kinase catalytic subunit alpha isoform (Homo sapiens), P42336 [Q546K]; settings: Compound concentration 1000.0 nM
[23] = target: Serine/threonine-protein kinase NIM1 (Homo sapiens) (UniProt Q8IY84); settings: Compound concentration 1000.0 nM
[24] = target: Cyclin-dependent kinase 13 (Homo sapiens) (UniProt Q14004); settings: Compound concentration 1000.0 nM
[25] = target: Ankyrin repeat and protein kinase domain-containing protein 1 (Homo sapiens) (UniProt Q8NFD2); settings: Compound concentration 1000.0 nM
[26] = system: Epidermal growth factor receptor (Homo sapiens), P00533 [UNDEFINED MUTATION]; settings: Compound concentration 1000.0 nM
[27] = target: Ephrin type-A receptor 1 (Homo sapiens) (UniProt P21709); settings: Compound concentration 1000.0 nM
[28] = target: Serine/threonine-protein kinase 25 (Homo sapiens) (UniProt O00506); settings: Compound concentration 1000.0 nM
[29] = target: Calcium/calmodulin-dependent protein kinase type II subunit delta (Homo sapiens) (UniProt Q13557); settings: Compound concentration 1000.0 nM
[30] = target: Serine/threonine-protein kinase TAO1 (Homo sapiens) (UniProt Q7L7X3); settings: Compound concentration 1000.0 nM
[31] = system: Receptor-type tyrosine-protein kinase FLT3 (Homo sapiens), P36888 [D835V]; settings: Compound concentration 1000.0 nM
[32] = system: Receptor-type tyrosine-protein kinase FLT3 (Homo sapiens), P36888 [R834Q]; settings: Compound concentration 1000.0 nM
[33] = system: Tyrosine-protein kinase ABL1 (Homo sapiens), P00519 [Q252H]; settings: Compound concentration 1000.0 nM
[34] = target: Tyrosine-protein kinase JAK2 (Homo sapiens) (UniProt O60674); settings: Compound concentration 1000.0 nM
[35] = target: Serine/threonine-protein kinase Nek1 (Homo sapiens) (UniProt Q96PY6); settings: Compound concentration 1000.0 nM
[36] = target: Maternal embryonic leucine zipper kinase (Homo sapiens) (UniProt Q14680); settings: Compound concentration 1000.0 nM
[37] = target: Serine/threonine-protein kinase PAK 6 (Homo sapiens) (UniProt Q9NQU5); settings: Compound concentration 1000.0 nM
[38] = target: Cyclin-dependent kinase 4 (Homo sapiens) (UniProt P11802); settings: Compound concentration 1000.0 nM; remark: listed apart in the source
[39] = target: Leukocyte tyrosine kinase receptor (Homo sapiens) (UniProt P29376); settings: Compound concentration 1000.0 nM
[40] = target: D(2) dopamine receptor (Homo sapiens) (UniProt P14416); settings: Compound concentration 10.0 uM
[41] = target: 5-hydroxytryptamine receptor 2C (Homo sapiens) (UniProt P28335); settings: Compound concentration 10.0 uM
[42] = target: Serine/threonine-protein kinase TBK1 (Homo sapiens) (UniProt Q9UHD2); settings: Compound concentration 1000.0 nM
[43] = target: Serine/threonine-protein kinase Sgk2 (Homo sapiens) (UniProt Q9HBY8); settings: Compound concentration 1000.0 nM
[44] = target: Megakaryocyte-associated tyrosine-protein kinase (Homo sapiens) (UniProt P42679); settings: Compound concentration 1000.0 nM
[45] = system: Epidermal growth factor receptor (Homo sapiens), P00533 [L858R,T790M]; settings: Compound concentration 1000.0 nM

Sequence of Cyclin-dependent kinase 4 (Homo sapiens) (P11802 whole entry): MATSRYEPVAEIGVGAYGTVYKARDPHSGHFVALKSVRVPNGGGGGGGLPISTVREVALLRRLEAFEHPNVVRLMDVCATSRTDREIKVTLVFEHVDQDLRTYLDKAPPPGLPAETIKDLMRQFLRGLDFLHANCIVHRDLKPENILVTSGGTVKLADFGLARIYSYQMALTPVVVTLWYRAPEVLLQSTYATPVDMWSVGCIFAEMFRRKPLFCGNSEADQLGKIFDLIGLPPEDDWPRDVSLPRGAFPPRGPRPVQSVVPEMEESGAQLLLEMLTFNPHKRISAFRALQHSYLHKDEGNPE
Sequence of Serine/threonine-protein kinase RIO3 (Homo sapiens) (O14730 whole entry): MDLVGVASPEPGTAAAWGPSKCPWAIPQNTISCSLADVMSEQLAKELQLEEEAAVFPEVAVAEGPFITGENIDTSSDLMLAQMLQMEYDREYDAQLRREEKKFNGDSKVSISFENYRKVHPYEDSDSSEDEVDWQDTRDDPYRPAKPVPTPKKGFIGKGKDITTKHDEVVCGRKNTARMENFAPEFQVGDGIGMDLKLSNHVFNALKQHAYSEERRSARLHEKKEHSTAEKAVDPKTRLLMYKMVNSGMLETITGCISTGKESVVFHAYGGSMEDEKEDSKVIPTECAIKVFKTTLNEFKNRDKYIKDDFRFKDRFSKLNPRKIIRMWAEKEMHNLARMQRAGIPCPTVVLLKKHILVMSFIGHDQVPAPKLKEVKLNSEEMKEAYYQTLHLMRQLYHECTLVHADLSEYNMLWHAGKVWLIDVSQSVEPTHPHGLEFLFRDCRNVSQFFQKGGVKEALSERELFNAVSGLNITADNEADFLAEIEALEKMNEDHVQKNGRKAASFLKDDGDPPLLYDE
Sequence of Serine/threonine-protein kinase NIM1 (Homo sapiens) (Q8IY84 whole entry): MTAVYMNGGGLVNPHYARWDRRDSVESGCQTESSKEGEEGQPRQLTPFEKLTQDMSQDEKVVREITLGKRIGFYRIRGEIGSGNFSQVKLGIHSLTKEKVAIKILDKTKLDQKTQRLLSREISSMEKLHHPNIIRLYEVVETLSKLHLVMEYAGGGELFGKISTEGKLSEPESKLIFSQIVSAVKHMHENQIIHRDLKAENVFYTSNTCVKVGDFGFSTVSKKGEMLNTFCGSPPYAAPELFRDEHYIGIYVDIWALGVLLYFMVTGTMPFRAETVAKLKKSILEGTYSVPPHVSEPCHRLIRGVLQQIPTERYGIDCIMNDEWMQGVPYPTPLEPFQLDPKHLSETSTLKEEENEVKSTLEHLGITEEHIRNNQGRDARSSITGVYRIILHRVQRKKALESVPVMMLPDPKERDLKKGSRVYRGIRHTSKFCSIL
Sequence of Ephrin type-A receptor 8 (Homo sapiens) (P29322 whole entry): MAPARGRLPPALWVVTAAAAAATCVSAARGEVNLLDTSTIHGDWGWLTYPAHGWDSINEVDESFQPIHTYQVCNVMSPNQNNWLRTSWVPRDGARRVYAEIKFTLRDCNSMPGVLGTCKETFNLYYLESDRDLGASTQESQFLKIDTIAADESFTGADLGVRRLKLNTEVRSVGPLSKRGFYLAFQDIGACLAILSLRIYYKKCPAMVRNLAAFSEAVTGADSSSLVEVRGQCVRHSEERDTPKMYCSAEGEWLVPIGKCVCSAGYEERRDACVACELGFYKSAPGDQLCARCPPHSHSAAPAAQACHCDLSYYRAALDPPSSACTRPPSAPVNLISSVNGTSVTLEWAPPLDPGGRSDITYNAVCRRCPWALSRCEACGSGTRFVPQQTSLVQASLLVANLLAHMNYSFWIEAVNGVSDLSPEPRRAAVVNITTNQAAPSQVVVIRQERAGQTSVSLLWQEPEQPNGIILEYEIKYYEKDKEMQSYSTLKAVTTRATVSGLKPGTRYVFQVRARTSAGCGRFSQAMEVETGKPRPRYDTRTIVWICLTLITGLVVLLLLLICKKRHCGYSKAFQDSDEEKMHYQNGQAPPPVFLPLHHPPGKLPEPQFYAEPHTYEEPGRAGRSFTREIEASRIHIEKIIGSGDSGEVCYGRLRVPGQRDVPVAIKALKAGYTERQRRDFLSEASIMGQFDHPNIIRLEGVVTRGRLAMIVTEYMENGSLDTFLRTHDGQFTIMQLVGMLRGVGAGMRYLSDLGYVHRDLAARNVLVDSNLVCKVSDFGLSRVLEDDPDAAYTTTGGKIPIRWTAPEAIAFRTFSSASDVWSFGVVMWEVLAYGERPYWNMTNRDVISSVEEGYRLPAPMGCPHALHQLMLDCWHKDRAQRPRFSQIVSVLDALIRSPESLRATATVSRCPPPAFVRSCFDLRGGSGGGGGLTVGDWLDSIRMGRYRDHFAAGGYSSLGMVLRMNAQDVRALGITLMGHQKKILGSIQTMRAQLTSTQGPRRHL
Sequence of Fibroblast growth factor receptor 2 (Homo sapiens) (P21802 22-821 limits assumed): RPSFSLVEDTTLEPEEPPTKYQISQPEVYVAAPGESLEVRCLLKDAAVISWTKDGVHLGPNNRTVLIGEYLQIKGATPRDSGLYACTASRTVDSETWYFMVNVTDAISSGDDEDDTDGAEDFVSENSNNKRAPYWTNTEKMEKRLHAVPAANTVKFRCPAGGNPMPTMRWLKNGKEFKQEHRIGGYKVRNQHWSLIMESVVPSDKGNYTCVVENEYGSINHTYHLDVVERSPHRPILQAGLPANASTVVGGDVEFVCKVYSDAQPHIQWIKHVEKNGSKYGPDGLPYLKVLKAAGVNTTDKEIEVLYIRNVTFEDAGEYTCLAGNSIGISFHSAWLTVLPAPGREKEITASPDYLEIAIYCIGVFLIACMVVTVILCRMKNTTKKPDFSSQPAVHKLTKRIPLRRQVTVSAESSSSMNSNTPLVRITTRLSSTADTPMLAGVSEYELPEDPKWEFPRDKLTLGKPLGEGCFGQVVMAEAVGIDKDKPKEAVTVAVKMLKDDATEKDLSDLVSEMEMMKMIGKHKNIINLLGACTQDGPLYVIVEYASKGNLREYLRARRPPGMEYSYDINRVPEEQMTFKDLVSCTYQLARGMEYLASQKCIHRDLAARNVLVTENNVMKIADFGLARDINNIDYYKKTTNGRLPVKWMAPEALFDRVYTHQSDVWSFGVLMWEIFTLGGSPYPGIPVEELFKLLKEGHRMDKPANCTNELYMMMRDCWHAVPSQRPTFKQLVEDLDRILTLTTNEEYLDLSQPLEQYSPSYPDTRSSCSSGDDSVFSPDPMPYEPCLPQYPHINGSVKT
Sequence of Ankyrin repeat and protein kinase domain-containing protein 1 (Homo sapiens) (Q8NFD2 whole entry, the tested form may be a part): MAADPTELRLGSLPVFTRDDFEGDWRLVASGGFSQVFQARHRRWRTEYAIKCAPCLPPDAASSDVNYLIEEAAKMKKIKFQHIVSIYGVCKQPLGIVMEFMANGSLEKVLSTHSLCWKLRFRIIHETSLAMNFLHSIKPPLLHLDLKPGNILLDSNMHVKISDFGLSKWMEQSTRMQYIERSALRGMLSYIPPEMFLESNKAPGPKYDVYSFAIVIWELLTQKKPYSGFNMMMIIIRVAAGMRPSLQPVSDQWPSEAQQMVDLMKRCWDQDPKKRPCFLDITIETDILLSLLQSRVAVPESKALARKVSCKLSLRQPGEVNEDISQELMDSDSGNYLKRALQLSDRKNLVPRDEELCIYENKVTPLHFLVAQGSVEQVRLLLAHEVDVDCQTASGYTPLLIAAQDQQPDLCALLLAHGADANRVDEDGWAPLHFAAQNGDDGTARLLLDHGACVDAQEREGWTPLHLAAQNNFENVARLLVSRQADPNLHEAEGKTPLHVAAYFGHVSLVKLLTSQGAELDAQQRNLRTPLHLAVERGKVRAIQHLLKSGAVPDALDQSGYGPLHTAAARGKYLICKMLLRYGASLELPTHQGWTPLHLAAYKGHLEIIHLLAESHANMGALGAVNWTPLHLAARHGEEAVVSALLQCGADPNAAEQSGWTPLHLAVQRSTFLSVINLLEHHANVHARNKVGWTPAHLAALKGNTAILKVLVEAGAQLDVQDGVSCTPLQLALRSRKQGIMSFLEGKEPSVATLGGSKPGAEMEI
Sequence of Serine/threonine-protein kinase TAO1 (Homo sapiens) (Q7L7X3 whole entry): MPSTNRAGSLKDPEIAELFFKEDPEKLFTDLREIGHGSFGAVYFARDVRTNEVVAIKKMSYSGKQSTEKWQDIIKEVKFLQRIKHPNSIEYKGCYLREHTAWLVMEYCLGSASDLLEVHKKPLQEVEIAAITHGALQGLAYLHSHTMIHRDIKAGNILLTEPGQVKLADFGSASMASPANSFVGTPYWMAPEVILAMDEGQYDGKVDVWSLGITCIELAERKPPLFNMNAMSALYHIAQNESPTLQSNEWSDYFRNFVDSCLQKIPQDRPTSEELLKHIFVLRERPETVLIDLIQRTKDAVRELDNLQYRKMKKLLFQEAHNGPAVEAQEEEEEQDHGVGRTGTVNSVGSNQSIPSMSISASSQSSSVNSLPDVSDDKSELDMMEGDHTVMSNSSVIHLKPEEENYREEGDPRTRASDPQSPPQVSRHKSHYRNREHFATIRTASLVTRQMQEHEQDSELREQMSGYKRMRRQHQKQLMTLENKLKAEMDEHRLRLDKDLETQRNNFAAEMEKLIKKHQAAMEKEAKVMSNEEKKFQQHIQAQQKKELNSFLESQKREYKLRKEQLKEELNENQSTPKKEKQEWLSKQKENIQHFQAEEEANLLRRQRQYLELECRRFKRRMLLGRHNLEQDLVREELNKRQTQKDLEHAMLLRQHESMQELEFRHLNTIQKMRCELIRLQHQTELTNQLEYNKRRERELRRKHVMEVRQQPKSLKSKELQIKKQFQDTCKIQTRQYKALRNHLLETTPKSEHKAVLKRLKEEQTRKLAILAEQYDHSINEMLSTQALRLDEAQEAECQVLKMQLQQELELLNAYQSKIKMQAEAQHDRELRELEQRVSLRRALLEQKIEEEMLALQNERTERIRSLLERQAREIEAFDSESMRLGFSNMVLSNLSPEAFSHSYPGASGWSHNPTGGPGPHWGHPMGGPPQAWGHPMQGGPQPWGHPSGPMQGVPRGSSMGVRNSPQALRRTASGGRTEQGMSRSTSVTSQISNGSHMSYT

Cc1nc(Cc2cccc(C(F)(F)F)c2)sc1-c1ccc(C(N)=O)nc1 [TP-024n]
residual activity [1]: 100% | residual activity [2]: 97% | residual activity [3]: 100% | residual activity [4]: 100% | residual activity [5]: 100% | residual activity [6]: 86% | residual activity [7]: 86% | residual activity [8]: 90% | residual activity [9]: 100% | residual activity [10]: 100% | residual activity [11]: 83% | inhibition [12]: 10% | residual activity [13]: 86% | residual activity [14]: 90% | inhibition [15]: 5.89% | inhibition [16]: 13.8% | residual activity [17]: 96% | residual activity [18]: 100% | residual activity [19]: 84% | residual activity [20]: 79% | residual activity [21]: 100% | residual activity [22]: 86% | residual activity [23]: 100% | residual activity [24]: 100% | residual activity [25]: 95% | residual activity [26]: 83% | residual activity [27]: 81% | residual activity [28]: 88% | residual activity [29]: 100% | residual activity [30]: 81% | residual activity [31]: 100% | residual activity [32]: 92% | residual activity [33]: 87% | residual activity [34]: 100% | residual activity [35]: 41% | residual activity [36]: 100% | residual activity [37]: 92% | residual activity [38]: 100% | residual activity [39]: 100% | inhibition [40]: -5.26% | inhibition [41]: 0.93% | residual activity [42]: 91% | residual activity [43]: 95% | residual activity [44]: 100% | residual activity [45]: 87%

Cc1cc(-n2nc(Cc3cc(F)cc(C(F)(F)F)c3)nc2C)ccc1C(N)=O [TP-024]
residual activity [1]: 100% | residual activity [2]: 94% | residual activity [3]: 100% | residual activity [4]: 100% | residual activity [5]: 100% | residual activity [6]: 100% | residual activity [7]: 88% | residual activity [8]: 100% | residual activity [9]: 100% | residual activity [10]: 100% | residual activity [11]: 95% | inhibition [12]: -7.57% | residual activity [13]: 100% | residual activity [14]: 84% | inhibition [15]: 10.1% | inhibition [16]: 14.3% | residual activity [17]: 100% | residual activity [18]: 100% | residual activity [19]: 98% | residual activity [20]: 81% | residual activity [21]: 100% | residual activity [22]: 76% | residual activity [23]: 100% | residual activity [24]: 100% | residual activity [25]: 100% | residual activity [26]: 83% | residual activity [27]: 100% | residual activity [28]: 89% | residual activity [29]: 100% | residual activity [30]: 91% | residual activity [31]: 100% | residual activity [32]: 77% | residual activity [33]: 94% | residual activity [34]: 100% | residual activity [35]: 54% | residual activity [36]: 100% | residual activity [37]: 100% | residual activity [38]: 100% | residual activity [39]: 100% | inhibition [40]: 0.68% | inhibition [41]: -5.34% | residual activity [42]: 89% | residual activity [43]: 100% | residual activity [44]: 100% | residual activity [45]: 90%
